Measurements: patent publication US20210137934A1, “METHODS OF IDENTIFYING MYC-DRIVEN AND LIPOGENESIS-DEPENDENT NEOPLASMS AND METHODS OF TREATING THE SAME” (The Board of Trustees of the Leland Stanford Junior …, priority 2017, published 2021)
“Also recorded” adds a separate entry of the source.

How the values were obtained:
[1] = tested on: human lymphoma B-cell line (P493-6); experiment: In vitro cell proliferation by total live cell counts, P493-6; format: cell-based; settings: P493-6 cells, various concentrations
Description: (§1) Cell culture conditions. P493-6 cells are cultured in Gibco's RPM11640 media under normal culture conditions of 20% O2, 4% CO2, and 37° C. P493 cells are suspension cells, and they are kept at 0.2-1.8 million cells/ml density to avoid confluency. In order to turn off Myc, 1 μg/ml of tetracycline is applied to the media for 48 hours to completely suppress Myc. Mouse-derived renal carcinoma line E28 and human RCC 786-O cell line are cultured for in vitro experiments under normal culture conditions of 20% O2, 4% CO2, and 37° C. 786-O and E28 cells are maintained in Dulbecco's Modified Eagle Medium (DMEM), which is supplemented with 10% fetal bovine serum (FBS), 1% L-glutamine, 1% sodium pyruvate, 1% nonessential amino acids, and Antibiotic-Antimycotic. Trypsin-EDTA is used to passage E28 and 786-O cells. All cell culture reagents are purchased from Gibco® (Thermo Fisher Scientific Inc.).
(§2) Small molecule inhibitors. The small molecule, TOFA (Sigma), diluted in dimethyl sulfoxide (DMSO) to the desired concentrations is added to cell culture medium to achieve inhibition of ACACA. TOFA is an allosteric inhibitor of ACACA, the enzyme which catalyzes the rate-limiting step of fatty acid synthesis. Various concentrations of TOFA are administered to cells in culture over time to assess dose-response suppression of proliferation. For in vivo treatment of mice, 25 mg/kg TOFA is administered daily by intraperitoneal injections (IP). The stock TOFA is diluted in DMSO to 10 mg/ml, such that the final injected volume is around 50 μl since the mice weigh about 20 g.
(§3) Cell counting. A volume of cells is removed from culture medium and mixed with an equal volume of 0.4% Trypan blue stain. Then 10 μl hemocytometer for cell counting. Viable cell counts are used as a measure of cell proliferation.

RCC (E28) cells = experiment: In vitro cell proliferation by total live cell counts, E28; format: cell-based, mouse; settings: for cell growth / proliferation (total live cell counts): various concentrations
Description: as §1, §2, §3

[2] = tested on: transgenic MYC-induced RCC; experiment: Transgenic MYC-induced RCC mouse model, tumor growth (kidney weight and size, histology); format: in vivo; settings: 25 mg/kg daily IP
Description: as §2

[3] = tested on: human RCC 786-O xenograft; experiment: Human RCC 786-O xenograft in NSG mice; format: in vivo, mouse; settings: 25 mg/kg daily IP
Description: as §1
as §2, with “For in vivo treatment of mice, 25 mg/kg TOFA is administered daily by intraperitoneal injections (IP). The stock TOFA is diluted in DMSO to 10 mg/ml, such that the final injected volume is around 50 μl since the mice weigh about 20 g.” left out

[4] = tested on: human RCC tumor derived cell line, 786-0; experiment: Human RCC 786-O cell line treated in vitro; format: cell-based; settings: 786-0 cell line treated in vitro
Description: as §1
as §2, with “For in vivo treatment of mice, 25 mg/kg TOFA is administered daily by intraperitoneal injections (IP). The stock TOFA is diluted in DMSO to 10 mg/ml, such that the final injected volume is around 50 μl since the mice weigh about 20 g.” left out

PGs and PIs [5] = experiment: DESI-MSI lipid profile in transgenic MYC-induced RCC; format: in vivo, mouse
Description: as §2
(§4) Desorption Electrospray Ionization Mass Spectrometry Imaging (DESI-MSI). DESI-MSI is used for generating two-dimensional chemical maps of various tissues sections in order to assess the lipid profile of an organ. Tissue sections of 16 μm thick are imaged by this method using a lab-built DESI-MSI source coupled to an LTQ-Orbitrap XL mass spectrometer (Thermo Fisher Scientific, MA), and the mass spectra are acquired in negative ion mode using the Orbitrap as the mass analyzer at 60,000 resolving power. […] All tissues are histopathologically evaluated after imaging using standard hematoxylin and eosin (H&E) staining, to ensure a correct interpretation of lipid signals. […]

PGs and PIs [6] = experiment: DESI-MSI lipid profile in human RCC xenograft; format: in vivo, mouse
Description: as §2, §4

HCC (EC4) cells = experiment: In vitro cell growth, EC4; format: cell-based, mouse
Description: as §2, with “g. Cell counting. A volume of cells is removed from culture medium and mixed with an equal volume of 0.4% Trypan blue stain. Then 10 μl hemocytometer for cell counting. Viable cell counts are used as a measure of cell proliferation.” for “g.”

T-ALL (4188) cells = experiment: In vitro cell growth, 4188; format: cell-based, mouse; settings: 4188 T-ALL cells
Description: as §2, with “g. Cell counting. A volume of cells is removed from culture medium and mixed with an equal volume of 0.4% Trypan blue stain. Then 10 μl hemocytometer for cell counting. Viable cell counts are used as a measure of cell proliferation.” for “g.”

Structure (SMILES) | cell growth / proliferation (total live cell counts) [1] | rescue of growth inhibition by addition of oleate (RCC (E28) cells; oleate added) | cell growth / proliferation (total live cell counts) (RCC (E28) cells) | tumor progression / regression, treatment after tumor onset ([2]; treatment at week 2 (15 day MYC on tumor), kidney weight and size, histology) | tumor growth / tumorigenesis, treatment before tumor onset ([2]; treatment from week 0 (day 0 MYC on)) | xenograft tumor growth [3] | tumor cell response in vitro [4] | PGs and PIs by DESI-MSI during tumor initiation and regression (PGs and PIs [5]) | PGs and PIs by DESI-MSI (PGs and PIs [6]) | cell growth / proliferation (total live cell counts) ([1]; listed as Cerulenin) | cell growth (HCC (EC4) cells) | cell growth (T-ALL (4188) cells)
CCCCCCCCCCCCCCOc1ccc(C(=O)O)o1 [TOFA, 5-(tetradecyloxy)-2-furancarboxylic acid] | growth inhibited in vitro in a dose-dependent manner; also recorded: decreased in a dose-dependent manner | partially rescuable; also recorded: partially rescued | growth inhibited in vitro in a dose-dependent manner; also recorded: similar | regressed; also recorded: induced tumor regression; also recorded: significantly reduces kidney tumor progression | blocked; also recorded: prevented tumor growth; also recorded: completely prevents tumorigenesis | regresses; also recorded: exhibited tumor regression | exhibited tumor regression | suppressed; also recorded: block PGs and PIs | block PGs and PIs | – | – | –
C/C=C/C/C=C/CCC(=O)[C@H]1O[C@H]1C(N)=O [cerulenin, Cerulenin] | growth inhibited in vitro in a dose-dependent manner | – | growth inhibited in vitro in a dose-dependent manner | – | – | – | – | – | – | decreased in a dose-dependent manner | growth inhibited in vitro in a dose-dependent manner | growth inhibited in vitro in a dose-dependent manner
